Test results reported in patent US20250177115A1, “COMBINATORIAL THERAPIES INCLUDING IMPLANTABLE DAMPING DEVICES AND THERAPEUTIC AGENTS FOR TREATING A CONDITION AND ASSOCIATED SYSTEMS AND METHODS OF USE” (THE BRAIN PROTECTION COMPANY PTY LTD, priority 2021, published 2025).

Tested on: TAC mice
Assay: Cognition (Y Maze, exploratory behaviour)
Assay type: in vivo
Experimental: FIG. 24 is a dot plot showing the % alterations in a Y maze in mice with an absorbable suture versus a plain suture, with and without treatment according to some embodiments. Measurement of the number of alternations within the 3 arms of a Y-Maze according to the following formula: % alternation=(total alternations/(total entries−2)×100).
Cognition (Y Maze—exploratory behaviour). Cognition was measured according to the number of behavior alterations within the three (3) arms of a Y Maze, as shown in FIGS. 23-24.

## CCCCCCCCc1ccc(CCC(N)(CO)CO)cc1 [Fingolimod, fingolimod]
Treated absorbable suture group, SEM=3.556, n=7
  mean % alteration in a Y maze: 61.396%
Treated plain suture group, SEM=2.644, n=12
  mean % alteration in a Y maze: 70.296%
